Reference: patent US8148531B2 (Chroma Therapeutics Ltd., priority 2005, dated 2012)
Counter-ions that a name gives are not always drawn.

Experiments:
Type in all cases: cell-based
[1] = system: HCT 116 cell line; experiment: Cell inhibition assay (SRB cell viability), HCT 116; conditions: Homo sapiens, IC50 range class, 72 h, read-out: Inhibitor Activity vs HCT 116 cell line
Method: (§1) The corresponding cancer cell lines (U937, HCT 116 and HUT) growing in log phase were harvested and seeded at 1000 cells/well (200 ul final volume) into 96-well tissue culture plates. Following 24 h of cell growth cells were treated with compounds (final concentration of 20 uM). Plates were then re-incubated for a further 72 h before a sulphorhodamine B (SRB) cell viability assay was conducted according to Skehan 1990 J Natl Canc Inst 82, 1107-1112.
(§2) Data were expressed as a percentage inhibition of the control, measured in the absence of inhibitor, as follows: — % inhibition=100−((S^i/S^o)×100) where S^i is the signal in the presence of inhibitor and S^o is the signal in the presence of DMSO.
(§3) IC50 values were determined by non-linear regression analysis, after fitting the results of eight data points to the equation for sigmoidal dose response with variable slope (% activity against log concentration of compound), using Graphpad Prism software.

[2] = system: U937 cell line; experiment: Cell inhibition assay (SRB cell viability), U937; conditions: Homo sapiens, U-937, IC50 range class, 72 h, read-out: Inhibitor Activity vs U937 cell line
Method: as §1, §2, §3

[3] = system: HUT cell line; experiment: Cell inhibition assay (SRB cell viability), HUT; conditions: IC50 range class, 72 h, read-out: Inhibitor Activity vs HUT cell line
Method: as §1, §2, §3

IC50 [1] | IC50 [2] | Compound | IC50 [3]
> 5000 nM | 1000 to 5000 nM | COc1cc2c(Nc3ccc(NC(=O)c4ccccc4)cc3)c(Br)cnc2cc1OCC[C@H](N)C(=O)OC1CCCC1 [Example 33, Dihydrochloride] | 1000 to 5000 nM
< 1000 nM | < 1000 nM | COc1cc2c(Oc3ccc(NC(=O)c4ccc(F)cc4)cc3)ccnc2cc1OCC[C@H](N)C(=O)OC1CCCC1 [Example 63, (S)-2-Amino-4-{4-[4-(4-fluoro-benzoylamino)-phenoxy]-6-methoxy-quinolin-7-yloxy}-butyric acid cyclopentyl ester] | < 1000 nM
1000 to 5000 nM | < 1000 nM | COc1cc2c(Oc3ccc(NCc4ccccc4)cc3)ccnc2cc1OCC[C@H](N)C(=O)OC1CCCC1 [Example 138, (S)-2-Amino-4-[4-(4-benzylamino-phenoxy)-6-methoxy-quinolin-7-yloxy]-butyric acid cyclopentyl ester] | < 1000 nM
1000 to 5000 nM | < 1000 nM | CCN[C@@H](CCOc1cc2nccc(Oc3ccc(NC(=O)c4ccccc4)cc3)c2cc1OC)C(=O)OC1CCCC1 [Example 38, (S)-4-[4-(4-Benzoylamino-phenoxy)-6-methoxy-quinolin-7-yloxy]-2-ethylamino-butyric acid cyclopentyl ester] | 1000 to 5000 nM
< 1000 nM | < 1000 nM | COc1cc2c(Oc3ccc(NC(=O)c4ccccc4)cc3)ccnc2cc1OCC[C@H](N)C(=O)OCc1ccccc1 [Example 52, (S)-2-Amino-4-[4-(4-benzoylamino-phenoxy)-6-methoxy-quinolin-7-yloxy]-butyric acid benzyl ester] | < 1000 nM
< 1000 nM | < 1000 nM | COc1cc2c(Oc3ccc(NC(=O)c4ccccc4)cc3)ccnc2cc1OCC1CCN(CC[C@H](N)C(=O)OC2CCCC2)CC1 [Example 136, (S)-2-Amino-4-{4-[4-(4-benzoylamino-phenoxy)-6-methoxy-quinolin-7-yloxymethyl]-piperidin-1-yl}-butyric acid cyclopentyl ester] | < 1000 nM
< 1000 nM | < 1000 nM | COc1cc2c(Oc3ccc(NC(=O)c4ccc(Cl)cc4)cc3)ccnc2cc1OCC[C@H](N)C(=O)OC1CCCC1 [Example 66, (S)-2-Amino-4-{4-[4-(4-chloro-benzoylamino)-phenoxy]-6-methoxy-quinolin-7-yloxy}-butyric acid cyclopentyl ester] | < 1000 nM
< 1000 nM | < 1000 nM | COc1cc2c(Oc3ccc(NC(=O)c4ccccc4)cc3)ccnc2cc1OCC[C@H](N)C(=O)OC1CCCC1C (stereo partly drawn) [Example 49, (S)-2-Amino-4-[4-(4-benzoylamino-phenoxy)-6-methoxy-quinolin-7-yloxy]-butyric acid 2-methyl-cyclopentyl ester] | < 1000 nM
> 5000 nM | > 5000 nM | COc1cc2c(Nc3cnn(CC(=O)Nc4cccc(F)c4)c3)ccnc2cc1OCC[C@H](N)C(=O)OC1CCCC1 [Example 24, (S)-2-Amino-4-(4-{1-[(3-fluoro-phenylcarbamoyl)-methyl]-1H-pyrazol-4-ylamino}-6-methoxy-quinolin-7-yloxy)-butyric acid cyclopentyl ester] | > 5000 nM
< 1000 nM | < 1000 nM | COc1cc2c(Oc3ccc(NC(=O)C4=C(C)c5ccccc5C4)cc3)ccnc2cc1OCC[C@H](N)C(=O)OC1CCCC1 [Example 72, (S)-2-Amino-4-(6-methoxy-4-{4-[(3-methyl-1H-indene-2-carbonyl)-amino]-phenoxy}-quinolin-7-yloxy)-butyric acid cyclopentyl ester] | < 1000 nM
> 5000 nM | 1000 to 5000 nM | COc1cc2c(Oc3cccc(F)c3)ccnc2cc1OCC[C@H](N)C(=O)OC1CCCC1 [Example 5, (S)-2-Amino-4-[4-(3-fluoro-phenoxy)-6-methoxy-quinolin-7-yloxy]-butyric acid cyclopentyl ester] | 1000 to 5000 nM
> 5000 nM | < 1000 nM | COc1cc2c(Oc3ccc(NC(=O)c4ccccc4)cc3)ccnc2cc1OCC[C@H](NC(=O)c1cccs1)C(=O)OC1CCCC1 [Example 44, (S)-4-[4-(4-Benzoylamino-phenoxy)-6-methoxy-quinolin-7-yloxy]-2-[(thiophene-2-carbonyl)-amino]-butyric acid cyclopentyl ester] | 1000 to 5000 nM
< 1000 nM | < 1000 nM | COc1cc2c(Oc3ccc(NC(=O)c4ccc(F)cc4F)cc3)ccnc2cc1OCC[C@H](N)C(=O)OC1CCCC1 [Example 65, (S)-2-Amino-4-{4-[4-(2,4-difluoro-benzoylamino)-phenoxy]-6-methoxy-quinolin-7-yloxy}-butyric acid cyclopentyl ester] | < 1000 nM
< 1000 nM | < 1000 nM | COc1cc2c(Sc3ccc(NC(=O)Nc4ccc(C(F)(F)F)cc4)cc3)ccnc2cc1OCCC[C@@H](N)C(=O)OC1CCCC1 [Example 121, (R)-2-Amino-5-(6-methoxy-4-{4-[3-(4-trifluoromethyl-phenyl)-ureido]-phenylsulfanyl}-quinolin-7-yloxy)-pentanoic acid cyclopentyl ester] | < 1000 nM
> 5000 nM | 1000 to 5000 nM | COc1ccc(Oc2ccnc3cc(OCC[C@H](N)C(=O)OC4CCCC4)c(OC)cc23)cc1 [Example 9, (S)-2-Amino-4-[6-methoxy-4-(4-methoxy-phenoxy)-quinolin-7-yloxy]-butyric acid cyclopentyl ester] | > 5000 nM
< 1000 nM | < 1000 nM | COc1cc2c(Oc3ccc(CNC(=O)c4ccccc4)cc3)ccnc2cc1OCC[C@H](N)C(=O)OC1CCCC1 [Example 141, (S)-2-Amino-4-{4-[4-(benzoylamino-methyl)-phenoxy]-6-methoxy-quinolin-7-yloxy}-butyric acid cyclopentyl ester] | < 1000 nM
< 1000 nM | < 1000 nM | CCOC(=O)[C@@H](N)CCOc1cc2nccc(Oc3ccc(NC(=O)c4ccccc4)cc3)c2cc1OC [Example 51, (S)-2-Amino-4-[4-(4-benzoylamino-phenoxy)-6-methoxy-quinolin-7-yloxy]-butyric acid Ethyl ester] | < 1000 nM
1000 to 5000 nM | < 1000 nM | COc1cc2c(Oc3ccc(NC(=O)c4ccccc4)cc3)ccnc2cc1OC1CCN(CC[C@H](N)C(=O)OC2CCCC2)C1 (stereo partly drawn) [Example 137, (S)-2-Amino-4-{3-[4-(4-benzoylamino-phenoxy)-6-methoxy-quinolin-7-yloxy]-pyrrolidin-1-yl}-butyric acid cyclopentyl ester] | < 1000 nM
< 1000 nM | < 1000 nM | COc1cc2c(Oc3ccc(NC(=O)c4ccc(C(F)(F)F)cc4)cc3F)ccnc2cc1OCC[C@H](N)C(=O)OC1CCCC1 [Example 127, (S)-2-Amino-4-{4-[2-fluoro-4-(4-trifluoromethyl-benzoylamino)-phenoxy]-6-methoxy-quinolin-7-yloxy}-butyric acid cyclopentyl ester] | < 1000 nM
< 1000 nM | < 1000 nM | COc1cc2c(Oc3ccc(CC(=O)Nc4ccccc4)cc3)ccnc2cc1OCC[C@H](N)C(=O)OC1CCCC1 [Example 80, (S)-2-Amino-4-[6-methoxy-4-(4-phenylcarbamoylmethyl-phenoxy)-quinolin-7-yloxy]-butyric acid cyclopentyl ester] | < 1000 nM
